For 18 compounds, IC50 results are on record in patent US20260042764A1, “COMPOSITIONS AND METHODS FOR INHIBITION OF KRAS” (TheRas, Inc., priority 2022, published 2026).

One experiment has as its system SW620 cells (KRAS G12V). Put plainly: Cell-based pERK HTRF assay in SW620 cell (Biological Example 4). The following applies: Homo sapiens, SW-620, SW620 (KRAS G12V) cells, pERK HTRF. In outline:
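SW620 cells were treated for 4 h with compound in a 9-point half-log series from 1 μM top (0.25% DMSO), then lysed. Phospho-ERK was detected by HTRF with d2 and Eu cryptate antibodies after 4–24 h at room temperature, read at 615 nm emission.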
On the technique in general: In TR-FRET formats the signal depends on donor and acceptor labels being close together.

Another experiment deals with GP2d cells (KRAS G12D). The experiment is described as follows: Cell-based pERK HTRF assay in GP2d cell (Biological Example 2). The conditions noted are these: GP2d, GP2d (KRAS G12D) cells, pERK HTRF. In outline:
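HTRF read-out of pERK (excitation 320 nm, emission 615 nm) after lysates sat 4–24 h at room temperature with Eu cryptate and d2 antibodies.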

In experiment [1] the target is T1, Avi-KRAS G12D (1-169) GppNHp/RAF1 RBD-3xFLAG (52-151) (Homo sapiens, UniProt P01116, G12D).
T1 construct: Avi-KRAS G12D (1-169)
Put plainly: Raf1-KRAS G12D-GppNHP disruption HTRF assay (Biological Example 1). The class given is binding. The following applies: KRAS G12D-GppNHp/RAF1 RBD HTRF. In outline:
(§1)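 First, protein mix in Tris pH 7.5 buffer with NaCl, MgCl2, BSA, Tween and 10% DMSO is incubated 1 h at room temperature. Next, reagent mix is added and incubated a further 1 h at room temperature. Finally, HTRF is read and activity normalized to DMSO.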

Experiment [2] concerns the target T2, Avi-KRAS G12R (1-169) GppNHp/RAF1 RBD-3xFLAG (52-151) (Homo sapiens, UniProt P01116, G12R).
T2 construct: Avi-KRAS G12R (1-169)
The experiment is described as follows: Raf1-KRAS G12R-GppNHP disruption HTRF assay (Biological Example 1). The class given is binding. The following applies: KRAS G12R-GppNHp/RAF1 RBD HTRF. In outline:
as §1

The target in experiment [3] is T3, Avi-KRAS G12V (1-169) GppNHp/RAF1 RBD-3xFLAG (52-151) (Homo sapiens, UniProt P01116, G12V).
T3 construct: Avi-KRAS G12V (1-169)
The experiment is described as follows: Raf1-KRAS G12V-GppNHP disruption HTRF assay (Biological Example 1). The class given is binding. The conditions noted are these: KRAS G12V-GppNHp/RAF1 RBD HTRF. In outline: as §1

Experiment [4] has as its target T4, Avi-KRAS WT (1-169) GppNHp/RAF1 RBD-3xFLAG (52-151) (Homo sapiens, UniProt P01116).
T4 construct: Avi-KRAS WT (1-169)
Put plainly: Raf1-KRAS WT-GppNHP disruption HTRF assay (Biological Example 1). The class given is binding. The following applies: KRAS WT-GppNHp/RAF1 RBD HTRF. In outline: as §1

T1 sequence (P01116 1-169 isoform P01116-2 G12D): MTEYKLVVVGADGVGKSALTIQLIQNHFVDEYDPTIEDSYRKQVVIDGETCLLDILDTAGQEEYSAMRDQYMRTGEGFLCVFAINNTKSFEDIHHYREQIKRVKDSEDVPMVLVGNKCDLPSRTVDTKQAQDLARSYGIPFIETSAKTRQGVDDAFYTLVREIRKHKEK
T3 sequence (P01116 1-169 isoform P01116-2 G12V): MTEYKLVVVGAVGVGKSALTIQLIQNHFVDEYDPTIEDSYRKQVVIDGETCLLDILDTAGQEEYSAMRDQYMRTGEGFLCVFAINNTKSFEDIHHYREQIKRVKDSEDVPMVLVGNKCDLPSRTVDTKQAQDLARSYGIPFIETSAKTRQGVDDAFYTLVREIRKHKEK
T4 sequence (P01116 1-169 isoform P01116-2): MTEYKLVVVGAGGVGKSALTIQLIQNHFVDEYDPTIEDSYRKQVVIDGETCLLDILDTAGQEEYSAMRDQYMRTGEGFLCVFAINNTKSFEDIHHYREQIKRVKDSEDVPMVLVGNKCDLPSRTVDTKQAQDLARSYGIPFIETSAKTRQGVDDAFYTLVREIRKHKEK
T2 sequence (P01116 1-169 isoform P01116-2 G12R): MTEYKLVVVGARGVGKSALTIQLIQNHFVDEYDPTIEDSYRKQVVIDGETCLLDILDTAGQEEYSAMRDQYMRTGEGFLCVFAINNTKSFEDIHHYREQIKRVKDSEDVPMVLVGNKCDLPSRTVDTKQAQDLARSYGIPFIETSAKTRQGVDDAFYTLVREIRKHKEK

In general, IC50 refers to the concentration at which inhibition is half-maximal. High values mean a need for much substance, low ones inhibition by little substance. Consider `N#Cc1c(N)sc2c(F)ccc(-c3c(C(F)(F)F)cc4c(N5C6COCC5CC(O)C6)nc(OC[C@@]56CCCN5C[C@H](F)C6)nc4c3F)c12` (stereo partly drawn) [Compound 374], for which the IC50 was < 100 nM with SW620 cells (KRAS G12V); < 100 nM with GP2d cells (KRAS G12D); 100 to 1000 nM in experiment [1]; 1000 to 10000 nM in experiment [2]; 1000 to 10000 nM in experiment [3]; 100 to 1000 nM in experiment [4].

On to `N#Cc1c(N)sc2c(F)ccc(-c3c(C(F)(F)F)cc4c(N5[C@@H]6CO[C@H]7C6OC[C@H]75)nc(OC[C@@]56CCCN5C[C@H](F)C6)nc4c3F)c12` [Compound 382], for which the half-inhibitory concentration (IC50) in the experiment on SW620 cells (KRAS G12V) was < 100 nM; in the experiment with GP2d cells (KRAS G12D) it was < 100 nM; in experiment [1], 100 to 1000 nM; in experiment [2] it was 1000 to 10000 nM; in experiment [3], 1000 to 10000 nM; in experiment [4] it was 100 to 1000 nM.

For the compound `N#Cc1cc2n(n1)CCN(c1nc(OC[C@@]34CCCN3C[C@H](F)C4)nc3c(F)c(-c4ccc(F)c5sc(N)c(C#N)c45)c(C(F)(F)F)cc13)C2` [Compound 393], the IC50 is < 100 nM in the experiment on SW620 cells (KRAS G12V); < 100 nM in the experiment with GP2d cells (KRAS G12D); 1000 to 10000 nM in experiment [1]; > 10000 nM in experiment [2]; > 10000 nM in experiment [3]; > 10000 nM in experiment [4].

For the compound `CCN(c1nc(OC[C@@]23CCCN2C[C@H](F)C3)nc2c(F)c(-c3ccc(F)c4sc(N)c(C#N)c34)c(C(F)(F)F)cc12)[C@H]1CCN(C(=O)N(C)C)C1` [Compound 395], the half-maximal inhibitory concentration (IC50) (in the experiment with SW620 cells (KRAS G12V); in the experiment on GP2d cells (KRAS G12D); in experiment [1]; in experiment [2]; in experiment [3]; in experiment [4]) was < 100 nM throughout.

For the compound `CCN(c1nc(OC[C@@]23CCCN2C[C@H](F)C3)nc2c(F)c(-c3ccc(F)c4sc(N)c(C#N)c34)c(C(F)(F)F)cc12)[C@@H]1CCN(C(=O)OC)C1` [Compound 396], the half-inhibitory concentration (IC50) in the experiment on SW620 cells (KRAS G12V) was < 100 nM; in the experiment on GP2d cells (KRAS G12D), < 100 nM; in experiment [1], 100 to 1000 nM; in experiment [2], 100 to 1000 nM; in experiment [3] it was 100 to 1000 nM; in experiment [4], 100 to 1000 nM.

Take `CCC(=O)N1CC[C@@H](N(C)c2nc(OC[C@@]34CCCN3C[C@H](F)C4)nc3c(F)c(-c4ccc(F)c5sc(N)c(C#N)c45)c(Cl)cc23)[C@H]1C` [Compound 399]: the IC50 is < 100 nM in the experiment with SW620 cells (KRAS G12V); < 100 nM in the experiment on GP2d cells (KRAS G12D); 100 to 1000 nM in experiment [1]; 100 to 1000 nM in experiment [2]; 100 to 1000 nM in experiment [3]; 100 to 1000 nM in experiment [4].

Consider `C[C@@H]1[C@H](N(C)c2nc(OC[C@@]34CCCN3C[C@H](F)C4)nc3c(F)c(-c4ccc(F)c5sc(N)c(C#N)c45)c(Cl)cc23)CCN1C(=O)C1CC1` [Compound 401], for which the IC50 with SW620 cells (KRAS G12V) was < 100 nM; with GP2d cells (KRAS G12D) it was < 100 nM; in experiment [1] it was 100 to 1000 nM; in experiment [2] it was 100 to 1000 nM; in experiment [3], 100 to 1000 nM; in experiment [4] it was 100 to 1000 nM.

Turning to `C[C@H]1CN(c2nc(OC[C@@]34CCCN3C[C@H](F)C4)nc3c(F)c(-c4ccc(F)c5sc(N)c(C#N)c45)c(C(F)(F)F)cc23)Cc2cc(C(=O)N(C)C)nn21` [Compound 402], the concentration for half-maximal inhibition (IC50) is < 100 nM in the experiment on SW620 cells (KRAS G12V); < 100 nM with GP2d cells (KRAS G12D); 100 to 1000 nM in experiment [1]; 100 to 1000 nM in experiment [2]; 100 to 1000 nM in experiment [3]; 1000 to 10000 nM in experiment [4].

Consider `N#Cc1c(N)sc2c(F)ccc(-c3c(C(F)(F)F)cc4c(N5CCO[C@H]6C[C@H]65)nc(OC[C@@]56CCCN5C[C@H](F)C6)nc4c3F)c12` [Compound 403], for which the IC50 was < 100 nM in the experiment on SW620 cells (KRAS G12V); < 100 nM in the experiment on GP2d cells (KRAS G12D); 100 to 1000 nM in experiment [1]; 100 to 1000 nM in experiment [2]; 100 to 1000 nM in experiment [3]; 100 to 1000 nM in experiment [4].

With `CN(C)C(=O)c1nc2c(s1)CN(c1nc(OCC34CCCN3CC(F)C4)nc3c(F)c(-c4ccc(F)c5sc(N)c(C#N)c45)c(C(F)(F)F)cc13)CC2` (stereo not drawn) [Compound 404], the IC50 is < 100 nM in the experiment with SW620 cells (KRAS G12V); < 100 nM in the experiment with GP2d cells (KRAS G12D); 1000 to 10000 nM in experiment [1]; > 10000 nM in experiment [2]; 1000 to 10000 nM in experiment [3]; < 100 nM in experiment [4].

On to `CCC(=O)N1CC[C@@H](N(CC)c2nc(OC[C@@]34CCCN3C[C@H](F)C4)nc3c(F)c(-c4ccc(F)c5sc(N)c(C#N)c45)c(C(F)(F)F)cc23)[C@H]1C` [Compound 405], for which the IC50 with SW620 cells (KRAS G12V) is < 100 nM; in the experiment on GP2d cells (KRAS G12D) it was < 100 nM; in experiment [1], 100 to 1000 nM; in experiment [2], 100 to 1000 nM; in experiment [3] it was 100 to 1000 nM; in experiment [4] it was 100 to 1000 nM.

In the case of `CCN(c1nc(OC[C@@]23CCCN2C[C@H](F)C3)nc2c(F)c(-c3ccc(F)c4sc(N)c(C#N)c34)c(C(F)(F)F)cc12)[C@@H]1CCN(C(=O)C2CC2)[C@@H]1C` [Compound 406], the IC50 was < 100 nM in the experiment with SW620 cells (KRAS G12V); < 100 nM with GP2d cells (KRAS G12D); 100 to 1000 nM in experiment [1]; 100 to 1000 nM in experiment [2]; 100 to 1000 nM in experiment [3]; 100 to 1000 nM in experiment [4].

With `C[C@@H]1[C@H](N(C)c2nc(OC[C@@]34CCCN3C[C@H](F)C4)nc3c(F)c(-c4ccc(F)c5sc(N)c(C#N)c45)c(Cl)cc23)CCN1C(=O)C(F)F` [Compound 408], the IC50 with SW620 cells (KRAS G12V) is 100 to 1000 nM; with GP2d cells (KRAS G12D), < 100 nM; in experiment [1], 100 to 1000 nM; in experiment [2] it was 1000 to 10000 nM; in experiment [3], 1000 to 10000 nM; in experiment [4], 100 to 1000 nM.

For `C[C@@H]1[C@H](N(C)c2nc(OC[C@@]34CCCN3C[C@H](F)C4)nc3c(F)c(-c4ccc(F)c5sc(N)c(C#N)c45)c(C(F)(F)F)cc23)CCN1C(=O)N(C)C` [Compound 409], the IC50 with SW620 cells (KRAS G12V) was < 100 nM; in the experiment with GP2d cells (KRAS G12D), < 100 nM; in experiment [1], 100 to 1000 nM; in experiment [2], 100 to 1000 nM; in experiment [3], 100 to 1000 nM; in experiment [4] it was 100 to 1000 nM.

Consider `COC(=O)N1CC[C@@H](N(C)c2nc(OC[C@@]34CCCN3C[C@H](F)C4)nc3c(F)c(-c4ccc(F)c5sc(N)c(C#N)c45)c(C(F)(F)F)cc23)[C@H]1C` [Compound 410], for which the half-inhibitory concentration (IC50) in the experiment on SW620 cells (KRAS G12V) is < 100 nM; with GP2d cells (KRAS G12D), < 100 nM; in experiment [1], 100 to 1000 nM; in experiment [2], 100 to 1000 nM; in experiment [3], 100 to 1000 nM; in experiment [4] it was 100 to 1000 nM.

For the compound `N#Cc1c(N)sc2c(F)ccc(-c3c(C(F)(F)F)cc4c(N5CCO[C@@H]6C[C@@H]65)nc(OC[C@@]56CCCN5C[C@H](F)C6)nc4c3F)c12` [Compound 411], the IC50 with SW620 cells (KRAS G12V) is < 100 nM; in the experiment with GP2d cells (KRAS G12D), < 100 nM; in experiment [1], 100 to 1000 nM; in experiment [2] it was 100 to 1000 nM; in experiment [3], 100 to 1000 nM; in experiment [4] it was 100 to 1000 nM.

`N#Cc1c(N)sc2c(F)ccc(-c3c(C(F)(F)F)cc4c(N5CCN6C(=O)CCC6C5)nc(OCC56CCCN5CC(F)C6)nc4c3F)c12` (stereo not drawn) [Compound 412]: the 50% inhibitory concentration (IC50) was < 100 nM with SW620 cells (KRAS G12V); < 100 nM in the experiment on GP2d cells (KRAS G12D); 100 to 1000 nM in experiment [1]; 100 to 1000 nM in experiment [2]; 100 to 1000 nM in experiment [3]; 100 to 1000 nM in experiment [4].

As for `C[C@@]1(CO)CCN1c1nc(OC[C@@]23CCCN2C[C@H](F)C3)nc2c(F)c(-c3ccc(F)c4sc(N)c(C#N)c34)c(C(F)(F)F)cc12` [Compound 413], the IC50 is > 1000 nM in the experiment on SW620 cells (KRAS G12V); > 1000 nM in the experiment with GP2d cells (KRAS G12D); > 10000 nM in experiment [1]; > 10000 nM in experiment [2]; > 10000 nM in experiment [3]; > 10000 nM in experiment [4].
